Experimental data: US9422290B2, “Triazolopyridazine” (Boehringer Ingelheim International GmbH, priority 2012, dated 2016)

Biological target: BRD4-BD1 (Homo sapiens (Human), UniProt O60885)
Assay: BRD4-H4 tetraacetylated peptide inhibition AlphaScreen
Assay type: binding
Conditions: 15 nM GST-BRD4-BD1 (aa 44-168), 15 nM biotinylated Acetyl-Histone H4 (Lys5, 8, 12, 16) peptide
Protocol: Compounds are diluted in serial dilution 1:5 in assay buffer from 10 mM stock in DMSO (100 μM start concentration) in white OptiPlate-384 (PerkinElmer). […] Subsequently, 6 μl of premixed AlphaLISA Glutathione Acceptor Beads and AlphaScreen Streptavidin Donor Beads from PerkinElmer (in assay buffer at a concentration of 10 μg/ml each) are added and the samples are incubated for 30 min at RT in the dark (shaking 300 rpm). Afterwards, the signal is measured in a PerkinElmer Envision HTS Multilabel Reader using the AlphaScreen protocol from PerkinElmer. […] Negative control values are entered as low basis value when using the software GraphPad Prism for calculations. Furthermore, a positive control (probe molecule JQ1+ with protein/peptide mix) is pipetted. Determination of IC50 values are carried out using GraphPad Prism 3.03 software (or updates thereof).

**Q.** Which IC50 does the source give for `COCCN1CCC(Nc2cc(N(C)Cc3ccccc3)nn3c(C)nnc23)CC1` [III-3, N6-Benzyl-N8-[1-(2-methoxy-ethyl)-piperidin-4-yl]-3,N6-dimethyl-[1,2,4]triazolo[4,3-b]pyridazine-6,8-diamine] here?
**A.** Its IC50 is 0.003 µM.

**Q.** How did the IC50 turn out when `Cc1nnc2c(NC(C)C)cc(-c3cn(C(C)C)nc3Cc3ccccc3)nn12` [II-16] was run?
**A.** The IC50 was 0.711 µM.

**Q.** How did the IC50 turn out when `CNc1cc(-c2cnn(C)c2Oc2ccccc2)nn2c(C)nnc12` [II-14] was run?
**A.** Its IC50 is 0.026 µM.

**Q.** `Cc1nnc2c(Cl)cc(-c3cn(C)nc3Cc3ccccc3)nn12` [II-12, 3-benzyl-4-{8-chloro-3-methyl-[1,2,4]triazolo[4,3-b]pyridazin-6-yl}-1-methyl-1H-pyrazole] was tested. Which IC50 did it give?
**A.** Its IC50 is 0.051 µM.

**Q.** For `Cc1nnc2c(NC3CCN(C)CC3)cc(-c3cnn(C)c3Cc3ccccc3)nn12` [II-1, [6-(5-Benzyl-1-methyl-1H-pyrazol-4-yl)-3-methyl-[1,2,4]triazolo[4,3-b]pyridazin-8-yl]-(1-methyl-piperidin-4-yl)-amine], which IC50 is on record?
**A.** Its IC50 is 0.01 µM.

**Q.** For `COCCN1CCC(Nc2cc(-c3cnn(C)c3Oc3ccccc3)nn3c(C)nnc23)CC1` [II-6], which IC50 is on record?
**A.** Its IC50 is 0.008 µM.

**Q.** For `CNc1cc(-c2cn(C)nc2Cc2ccccc2)nn2c(C)nnc12` [II-10], which IC50 is on record?
**A.** The IC50 was 0.038 µM.

**Q.** Which IC50 does the source give for `Cc1nnc2c(NC3CCN(S(=O)(=O)CCCN(C)C)CC3)cc(N(C)Cc3ccccc3)nn12` [III-5] here?
**A.** The IC50 was 0.037 µM.

**Q.** With `CNc1cc(N(C)Cc2ccccc2)nn2c(C)nnc12` [Example I-5] as the compound, how does the IC50 read?
**A.** Its IC50 is 0.083 µM.

**Q.** With `Cc1nnc2c(NC3CCN(S(=O)(=O)CCN(C)C)CC3)cc(N(C)Cc3ccccc3)nn12` [III-11] as the compound, how does the IC50 read?
**A.** The IC50 was 0.039 µM.

**Q.** `Cc1nnc2c(NC3CCN(C)CC3)cc(-c3cnn(C)c3Oc3ccccc3)nn12` [II-7] was tested. Which IC50 did it give?
**A.** Its IC50 is 0.008 µM.

**Q.** How did the IC50 turn out when `Cc1nnc2c(N[C@H]3CCOC3)cc(N(C)Cc3ccccc3)nn12` [Example I-3] was run?
**A.** Its IC50 is 0.067 µM.

**Q.** For `Cc1nnc2c(NC3CCN(S(=O)(=O)CCN)CC3)cc(N(C)Cc3ccccc3)nn12` [III-8], which IC50 is on record?
**A.** Its IC50 is 0.032 µM.

**Q.** Which IC50 does the source give for `Cc1nnc2c(NC3CCOCC3)cc(N(C)Cc3ccccc3)nn12` [Example I-2] here?
**A.** The IC50 was 0.083 µM.

**Q.** How did the IC50 turn out when `CSc1cc(-c2cn(C)nc2Cc2ccccc2)nn2c(C)nnc12` [II-13] was run?
**A.** The IC50 was 2 µM.

**Q.** Which IC50 does the source give for `Cc1nnc2c(NC3CCN(C=O)CC3)cc(N(C)Cc3ccccc3)nn12` [III-4] here?
**A.** Its IC50 is 0.04 µM.

**Q.** How did the IC50 turn out when `Cc1nnc2c(NC3CCN(S(=O)(=O)C4CCN(C)C4)CC3)cc(N(C)Cc3ccccc3)nn12` (centres unmarked) [III-10] was run?
**A.** The IC50 was 0.044 µM.

**Q.** Which IC50 does the source give for `Cc1nnc2c(NC3CCN(S(=O)(=O)C4CCN(C)CC4)CC3)cc(N(C)Cc3ccccc3)nn12` [III-9] here?
**A.** The IC50 was 0.04 µM.

**Q.** With `Cc1nnc2c(NC3CCN(C)CC3)cc(-c3ccnn3Cc3ccccc3)nn12` [II-2] as the compound, how does the IC50 read?
**A.** The IC50 was 0.117 µM.

**Q.** For `Cc1cc(-c2cn(C)nc2Cc2ccccc2)nn2c(C)nnc12` [II-11], which IC50 is on record?
**A.** Its IC50 is 0.064 µM.

**Q.** For `Cc1nnc2c(NC3CCN(C)CC3)cc(-c3[nH]c4ccccc4c3Cc3ccccc3)nn12` [II-3], which IC50 is on record?
**A.** The IC50 was 0.003 µM.

**Q.** How did the IC50 turn out when `Cc1nnc2c(NC3CCN(S(=O)(=O)C4CCNC4)CC3)cc(N(C)Cc3ccccc3)nn12` (centres unmarked) [III-6] was run?
**A.** Its IC50 is 0.033 µM.

**Q.** With `COCCN1CCC(Nc2cc(-c3cn(C)nc3Cc3ccccc3)nn3c(C)nnc23)CC1` [II-8] as the compound, how does the IC50 read?
**A.** The IC50 was 0.004 µM.

**Q.** How did the IC50 turn out when `CCN1CCC(Nc2cc(N(C)Cc3ccccc3)nn3c(C)nnc23)CC1` [III-2, N6-Benzyl-N8-(1-ethyl-piperidin-4-yl)-3,N6-dimethyl-[1,2,4]triazolo[4,3-b]pyridazine-6,8-diamine] was run?
**A.** Its IC50 is 0.003 µM.

**Q.** For `CNc1cc(-c2cn(C)nc2Oc2ccccn2)nn2c(C)nnc12` [II-21], which IC50 is on record?
**A.** The IC50 was 0.072 µM.

**Q.** `Cc1nnc2c(NC3CCN(S(=O)(=O)C4CCNCC4)CC3)cc(N(C)Cc3ccccc3)nn12` [III-7] was tested. Which IC50 did it give?
**A.** The IC50 was 0.057 µM.

**Q.** How did the IC50 turn out when `CNc1cc(N(C)Cc2ccc(F)cc2)nn2c(C)nnc12` [Example I-6] was run?
**A.** The IC50 was 0.074 µM.

**Q.** With `CC(=O)N1CCC(Nc2cc(N(C)Cc3ccccc3)nn3c(C)nnc23)CC1` [III-1, 1-{4-[6-(Benzyl-methyl-amino)-3-methyl-[1,2,4]triazolo[4,3-b]pyridazin-8-ylamino]-piperidin-1-yl}-ethanone] as the compound, how does the IC50 read?
**A.** The IC50 was 0.061 µM.

**Q.** Which IC50 does the source give for `Cc1nnc2c(NC3CCN(C)CC3)cc(-c3cn(C)nc3Cc3ccccc3)nn12` [II-9] here?
**A.** The IC50 was 0.003 µM.

**Q.** With `Cc1nnc2c(NC(C)C)cc(-c3cn(C)nc3Cc3ccccc3)nn12` [II-19] as the compound, how does the IC50 read?
**A.** The IC50 was 0.105 µM.

**Q.** `Cc1nnc2c(NC3CCN(C)CC3)cc(-c3cc4ccccc4n3Cc3ccccc3)nn12` [II-5, [6-(1-Benzyl-1H-indol-2-yl)-3-methyl-[1,2,4]triazolo[4,3-b]pyridazin-8-yl]-(1-methyl-piperidin-4-yl)-amine] was tested. Which IC50 did it give?
**A.** Its IC50 is 0.105 µM.

**Q.** For `CNc1cc(-c2cn(C)nc2Oc2ccccc2)nn2c(C)nnc12` [II-15], which IC50 is on record?
**A.** The IC50 was 0.029 µM.

**Q.** How did the IC50 turn out when `Cc1nnc2c(NC(C)C)cc(-c3cnn(C)c3Oc3ccccc3)nn12` [II-17] was run?
**A.** Its IC50 is 0.14 µM.

**Q.** For `Cc1nnc2c(NC3CCN(C)CC3)cc(N(C)Cc3ccccc3)nn12` [Example I-1, N6-Benzyl-3,N6-dimethyl-N8-(1-methyl-piperidin-4-yl)-[1,2,4]triazolo[4,3-b]pyridazine-6,8-diamine], which IC50 is on record?
**A.** Its IC50 is 0.003 µM.

**Q.** With `Cc1nnc2c(NC(C)C)cc(-c3cn(C)nc3Oc3ccccc3)nn12` [II-18] as the compound, how does the IC50 read?
**A.** The IC50 was 0.031 µM.

**Q.** `Cc1nnc2c(N[C@@H]3CCOC3)cc(N(C)Cc3ccccc3)nn12` [Example I-4] was tested. Which IC50 did it give?
**A.** Its IC50 is 0.025 µM.

**Q.** `Cc1nnc2c(NC3CCN(C)CC3)cc(-c3c(Cc4ccccc4)c4ccccc4n3C)nn12` [II-4] was tested. Which IC50 did it give?
**A.** The IC50 was 0.037 µM.

**Q.** With `Cc1nnc2c(NC(C)C)cc(-c3cn(C)nc3Oc3ccccn3)nn12` [II-20] as the compound, how does the IC50 read?
**A.** The IC50 was 0.043 µM.
